Laboratory results taken from BindingDB's records for doi:10.1016/j.bioorg.2016.08.009 (China Pharmaceutical University, 2016).

target: T1, Bromodomain-containing protein 4 [44-168] (Human, UniProt O60885); experiment: BRD4-BD1 Binding Assay; conditions: 25 °C
T1 construct: 44-168
Procedure: 11 compounds were evaluated against BRD4-BD1 in vitro with compound 28a as the reference compound. BRD4 (44-168 aa) was bought from Active Motif. After preparing 1× assay buffer (modified HEPES Buffer), target compounds were transferred to assay plate by Echo, and the final concentration of DMSO solution was 0.1%. Then the preparation of protein solution and substrate solution in 1× assay buffer was performed. After that, 5 µL of protein solution was transferred to assay plate and incubated at room temperature for 15 min. The protein concentration was 5 nM. Then 5 µL of substrate solution was added to each well to start reaction with an incubation period for 60 min at room temperature. Finally, 15 µL acceptor and donor solution were added, followed by another incubation period for 60 min at room temperature under subdued light.

| IC50 | Compound |
| --- | --- |
| 0.16 µM | COc1ccc(CN2c3cc(-c4c(C)noc4C)ccc3NC(=O)C2C)cc1 [2(R)-6-(3,5-dimethylisoxazol-4-yl)-4-(4-methoxybenzyl)-3-methyl-3,4-dihydroquinoxalin-2(1H)-one (5b)] |
| 0.37 µM | Cc1noc(C)c1-c1ccc2c(c1)N(C1CCCC1)[C@H](C)C(=O)N2 [4(R)-4-cyclopentyl-6-(3,5-dimethylisoxazol-4-yl)-3-methyl-3,4-dihydroquinoxalin 2(1H)-one (5] |
| 0.5 µM | Cc1noc(C)c1-c1ccc2c(c1)N(Cc1ccc(Cl)cc1)CC(=O)N2 [4-(4-Chlorobenzyl)-6-(3,5-dimethylisoxazol-4-yl)-3,4-dihydroquinoxalin-2(1H)-one (5k)] |
| 0.65 µM | Cc1noc(C)c1-c1ccc2c(c1)N(Cc1ccccc1)C(CO)C(=O)N2 [8(R)-4-benzyl-6-(3,5-dimethylisoxazol-4-yl)-3-(hydroxymethyl)-3,4-dihydroquinoxalin-2(1H)-one (5h)] |
| 0.151 µM | Cc1noc(C)c1-c1ccc2c(c1)N(Cc1ccccc1)[C@H](Cc1ccccc1)C(=O)N2 [(R)-3,4-dibenzyl-6-(3,5-dimethylisoxazol-4-yl)-3,4-dihydroquinoxalin-2(1H)-one (5j)] |
| 0.073 µM | CC[C@@H]1C(=O)Nc2ccc(-c3c(C)noc3C)cc2N1Cc1ccccc1 [(R)-4-benzyl-6-(3,5-dimethylisoxazol-4-yl)-3-ethyl-3,4-dihydroquinoxalin-2(1H)-one (5i)] |
| 0.22 µM | COc1ccc(CN2c3cc(-c4c(C)noc4C)ccc3N(C)C(=O)[C@H]2C)cc1 [(R)-6-(3,5-dimethylisoxazol-4-yl)-4-(4-methoxybenzyl)-1,3-dimethyl-3,4-dihydroquinoxalin-2(1H)-one (8)] |
